Data as given in patent US20260226064A1, “POLYCYCLIC COMPOUND FOR TREATING NEUROLOGICAL DISEASES AND TUMORS” (Shanghai Institute of Organic Chemistry, Chinese Academy of …, priority 2023, published 2026).
Where two headings read alike, the source gives them in different places.

How the values were obtained:
[1] = Mouse Oral Pharmacokinetic Study; format: in vivo; settings: male CD1 mice, oral gavage 10 mg/kg; for Kp at 4 h: brain/plasma, read-out: Cbrain/Cplasma; for AUC(0-t): read-out: AUC0-4h
Description: Healthy male CD1 mice were used as experimental animals. The drug was administered by oral gavage at a dose of 10 mg/kg with a dosing volume of 10 mL/kg. Drug preparation: 10 mg of the compound was placed in 10 mL of 50% PEG400 or 20% HPb-cyclodextrin, ground and shaken to ensure uniform distribution of the compound in small particle size, followed by oral administration. Blood samples were collected at 30 min, 1 h, 2 h, and 4 h post-dose, and brain tissues were sampled at 4 h. EDTA dipotassium salt was added to the blood samples, and plasma was obtained after centrifugation. The supernatant was analyzed after dilution with 5 volumes of acetonitrile and centrifugation. The brain tissue homogenate was diluted with 3.5 volumes of acetonitrile, centrifuged, and the supernatant was collected for analysis. The samples were then analyzed by liquid chromatography-tandem mass spectrometry (LC-MS/MS): the instrument was AB Sciex 3500; the mobile phase consisted of 0.1% formic acid in water (A)/0.1% formic acid in acetonitrile (B), with gradient elution.

[2] = tested on: acetylated microtubule in HEK293T cells; assay: Microtubule-Stabilizing Activity Assay (acetylated microtubule immunoblot, HEK293T, colchicine challenge); format: cell-based; settings: 1 h pre-incubation, then colchicine 1 μM 3 h, relative to CNDR-51657 at 500 nM = 1.00; for Microtubule-Stabilizing Activity 50 nM: compound 50 nM; for Microtubule-Stabilizing Activity 500 nM: compound 500 nM
Summary of the method: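 HEK293T cells pretreated with compound or DMSO 1 h at 37 °C, then challenged with 1 μM colchicine for 3 h. Lysates (RIPA plus 1 μM trichostatin A) immunoblotted for acetylated and α-tubulin, quantified by densitometry. Activity expressed relative to CNDR-51657 at 500 nM set as 1.00.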

[3] = mouse, brain tissue at 4 h, read-out: Cbrain@4h
[4] = mouse, plasma at 4 h, read-out: Cpasma@4h

## C[C@H](Nc1c(-c2c(F)cc(OCC3[C@H]4CN(C)C[C@@H]34)cc2F)c(Cl)nc2ncnn12)C(F)(F)F (stereo partly drawn) [Example 25, 5-Chloro-6-(2,6-difluoro-4-(((1R,5S,6r)-3-methyl-3-azabicyclo[3.1.0]hexan-6-yl)methoxy)phenyl)-N—((S)-1,1,1-trifluoropropan-2-yl)-[1,2,4]triazolo[1,5-a]pyrimidin-7-amine]
[1]; mouse, 4 h
  Kp at 4 h: 1.45
[1]; [3]
  concentration at 4 h: 198 ng/mL
[1]; [4]
  concentration at 4 h: 137 ng/mL
[1]; mouse, plasma, 0-4 h
  AUC(0-t): 939 ng·h/mL
[1]; mouse, plasma, read-out: Cmax
  Cmax: 399 ng/mL
[1]; mouse, plasma, read-out: Tmax
  Tmax: 45 min
[2]
  Microtubule-Stabilizing Activity 50 nM: 0.96
  Microtubule-Stabilizing Activity 500 nM: 1.31

## CC(C)[C@@H](C)Nc1c(-c2c(F)cc(F)cc2F)c(Cl)nc2ncnn12 [Intermediate 4, (R)-5-Chloro-N-(3-methylbutan-2-yl)-6-(2,4,6-trifluorophenyl)-[1,2,4]triazolo[1,5-a]pyrimidin-7-amine, reference compound]
[1]; mouse, 4 h
  Kp at 4 h: 0
[1]; [3]
  concentration at 4 h: 0 ng/mL
[1]; [4]
  concentration at 4 h: 3 ng/mL
[1]; mouse, plasma, 0-4 h
  AUC(0-t): 57 ng·h/mL
[1]; mouse, plasma, read-out: Cmax
  Cmax: 49 ng/mL
[1]; mouse, plasma, read-out: Tmax
  Tmax: 30 min
[2]
  Microtubule-Stabilizing Activity 50 nM: 0.2-0.3
  Microtubule-Stabilizing Activity 500 nM: 1.00

## CN1C[C@@H]2[C@@H](/C=C/c3cc(F)c(-c4c(Cl)nc5ncnn5c4NCC(F)(F)F)c(F)c3)[C@@H]2C1 [Example 58]
[1]; mouse, 4 h
  Kp at 4 h: 3.58
[1]; [3]
  concentration at 4 h: 222 ng/mL
[1]; [4]
  concentration at 4 h: 62 ng/mL
[1]; mouse, plasma, 0-4 h
  AUC(0-t): 368 ng·h/mL
[1]; mouse, plasma, read-out: Cmax
  Cmax: 115 ng/mL
[1]; mouse, plasma, read-out: Tmax
  Tmax: 60 min
[2]
  Microtubule-Stabilizing Activity 50 nM: 1.09
  Microtubule-Stabilizing Activity 500 nM: 1.63

## C[C@@H](Nc1c(-c2c(F)cc(C#C[C@@H]3[C@H]4CN(C)C[C@@H]34)cc2F)c(Cl)nc2ncnn12)C1CCC1 [Example 46, 5-Chloro-N—((R)-1-cyclobutylethyl)-6-(2,6-difluoro-4-(((1R,5S,6s)-3-methyl-3-azabicyclo[3.1.0]hexan-6-yl)ethynyl)phenyl)-[1,2,4]triazolo[1,5-a]pyrimidin-7-amine]
[1]; mouse, 4 h
  Kp at 4 h: 1.09
[1]; [3]
  concentration at 4 h: 356 ng/mL
[1]; [4]
  concentration at 4 h: 325 ng/mL
[1]; mouse, plasma, 0-4 h
  AUC(0-t): 1600 ng·h/mL
[1]; mouse, plasma, read-out: Cmax
  Cmax: 572 ng/mL
[1]; mouse, plasma, read-out: Tmax
  Tmax: 30 min
[2]
  Microtubule-Stabilizing Activity 50 nM: 1.76
  Microtubule-Stabilizing Activity 500 nM: 1.44

## C[C@H](Nc1c(-c2c(F)cc(OCC3[C@H]4CNC[C@@H]34)cc2F)c(Cl)nc2ncnn12)C(F)(F)F (stereo partly drawn) [Example 24, 6-(4-(((1R,5S,6r)-3-Azabicyclo[3.1.0]hex-6-yl)methoxy)-2,6-difluorophenyl)-5-chloro-N—((S)-1,1,1-trifluoropropan-2-yl)-[1,2,4]triazolo[1,5-a]pyrimidin-7-amine]
[1]; mouse, 4 h
  Kp at 4 h: 0.17
[1]; [3]
  concentration at 4 h: 147 ng/mL
[1]; [4]
  concentration at 4 h: 874 ng/mL
[1]; mouse, plasma, 0-4 h
  AUC(0-t): 5960 ng·h/mL
[1]; mouse, plasma, read-out: Cmax
  Cmax: 2640 ng/mL
[1]; mouse, plasma, read-out: Tmax
  Tmax: 45 min
[2]
  Microtubule-Stabilizing Activity 50 nM: 0.86
  Microtubule-Stabilizing Activity 500 nM: 1.63

## CC(C)[C@@H](C)Nc1c(-c2c(F)cc(C#C[C@@H]3[C@H]4CN(C)C[C@@H]34)cc2F)c(Cl)nc2ncnn12 [Example 55, 5-Chloro-6-(2,6-difluoro-4-(((1R,5S,6s)-3-methyl-3-azabicyclo[3.1.0]hexan-6-yl)ethynyl)phenyl)-N—((R)-3-methylbutan-2-yl)-[1,2,4]triazolo[1,5-a]pyrimidin-7-amine]
[1]; mouse, 4 h
  Kp at 4 h: 1.22
[1]; [3]
  concentration at 4 h: 375 ng/mL
[1]; [4]
  concentration at 4 h: 306 ng/mL
[1]; mouse, plasma, 0-4 h
  AUC(0-t): 1450 ng·h/mL
[1]; mouse, plasma, read-out: Cmax
  Cmax: 496 ng/mL
[1]; mouse, plasma, read-out: Tmax
  Tmax: 30 min
[2]
  Microtubule-Stabilizing Activity 50 nM: 1.8
  Microtubule-Stabilizing Activity 500 nM: 1.62

## Cc1nc2ncnn2c(N[C@H](C)C(C)C)c1-c1c(F)cc(OCC2[C@H]3CN(C)C[C@@H]23)cc1F (stereo partly drawn) [Example 57, 6-(2,6-Difluoro-4-(((1R,5S,6r)-3-methyl-3-azabicyclo[3.1.0]hexan-6-yl)methoxy)phenyl)-5-methyl-N—((R)-3-methylbutan-2-yl)-[1,2,4]triazolo[1,5-a]pyrimidin-7-amine]
[1]; mouse, 4 h
  Kp at 4 h: 0.96
[1]; [3]
  concentration at 4 h: 102 ng/mL
[1]; [4]
  concentration at 4 h: 106 ng/mL
[1]; mouse, plasma, 0-4 h
  AUC(0-t): 525 ng·h/mL
[1]; mouse, plasma, read-out: Cmax
  Cmax: 161 ng/mL
[1]; mouse, plasma, read-out: Tmax
  Tmax: 30 min
[2]
  Microtubule-Stabilizing Activity 500 nM: 1.90

## CNCCCOc1cc(F)c(-c2c(Cl)nc3ncnn3c2N[C@@H](C)C(F)(F)F)c(F)c1 [Cevipubulin, reference compound]
[1]; 4 h
  Cbrain/Cplasma: 0.10
[1]; brain tissue at 4 h
  Cbrain@4h: 38 ng/mL
[1]; plasma
  Cmax: 660 ng/mL
  Tmax: 54 min
[1]; plasma at 4 h
  Cpasma@4h: 376 ng/mL
[1]; plasma, 0-4 h
  AUC0-4h: 1826 ng·h/mL
[2]
  Microtubule-Stabilizing Activity 50 nM: 1.65
  Microtubule-Stabilizing Activity 500 nM: 1.68

## Cc1nc2ncnn2c(NCC(F)(F)F)c1-c1c(F)cc(OC[C@@H]2[C@H]3CN(C)C[C@@H]23)cc1F [Example 60]
[1]; mouse, 4 h
  Kp at 4 h: 1.32
[1]; [3]
  concentration at 4 h: 62 ng/mL
[1]; [4]
  concentration at 4 h: 47 ng/mL
[1]; mouse, plasma, 0-4 h
  AUC(0-t): 696 ng·h/mL
[1]; mouse, plasma, read-out: Cmax
  Cmax: 379 ng/mL
[1]; mouse, plasma, read-out: Tmax
  Tmax: 30 min
[2]
  Microtubule-Stabilizing Activity 50 nM: 0.95
  Microtubule-Stabilizing Activity 500 nM: 1.24
